What was measured:
[1] = biological target: 5-hydroxytryptamine receptor 6 (Homo sapiens, UniProt P50406); type: cell membranes, HeLa, Membrane; details: for Ki: read-out: Ki; on all read-outs here: in other assays of this panel Not Active means under 50% inhibition at 10 µM
Substance-K receptor = biological target: T1, Substance-K receptor (Homo sapiens, UniProt P21452); type: cell membranes, CHO, Membrane; further: in other assays of this panel Not Active means under 50% inhibition at 10 µM
T1 sequence (P21452 whole entry): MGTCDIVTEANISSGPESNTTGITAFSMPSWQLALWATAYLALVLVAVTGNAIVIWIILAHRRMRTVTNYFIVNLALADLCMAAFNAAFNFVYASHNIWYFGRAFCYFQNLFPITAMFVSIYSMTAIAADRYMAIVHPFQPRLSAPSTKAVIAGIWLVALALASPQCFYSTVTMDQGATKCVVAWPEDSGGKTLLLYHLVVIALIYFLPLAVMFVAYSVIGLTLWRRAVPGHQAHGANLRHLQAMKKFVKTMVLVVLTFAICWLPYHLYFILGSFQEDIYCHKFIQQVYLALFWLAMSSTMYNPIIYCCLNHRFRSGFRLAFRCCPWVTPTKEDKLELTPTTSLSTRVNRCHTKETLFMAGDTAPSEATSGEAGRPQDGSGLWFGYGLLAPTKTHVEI

[2] = biological target: T2, Amine oxidase [flavin-containing] A (Homo sapiens, UniProt P21397); experiment: DRUGMATRIX: Monoamine Oxidase MAO-A enzyme inhibition (substrate: Kynuramine); set-up: species or system BTI-TN-5B1-4; details: bti-tn-5b1-4; Not Active = under 50% inhibition at 10 µM
T2 sequence (P21397 whole entry): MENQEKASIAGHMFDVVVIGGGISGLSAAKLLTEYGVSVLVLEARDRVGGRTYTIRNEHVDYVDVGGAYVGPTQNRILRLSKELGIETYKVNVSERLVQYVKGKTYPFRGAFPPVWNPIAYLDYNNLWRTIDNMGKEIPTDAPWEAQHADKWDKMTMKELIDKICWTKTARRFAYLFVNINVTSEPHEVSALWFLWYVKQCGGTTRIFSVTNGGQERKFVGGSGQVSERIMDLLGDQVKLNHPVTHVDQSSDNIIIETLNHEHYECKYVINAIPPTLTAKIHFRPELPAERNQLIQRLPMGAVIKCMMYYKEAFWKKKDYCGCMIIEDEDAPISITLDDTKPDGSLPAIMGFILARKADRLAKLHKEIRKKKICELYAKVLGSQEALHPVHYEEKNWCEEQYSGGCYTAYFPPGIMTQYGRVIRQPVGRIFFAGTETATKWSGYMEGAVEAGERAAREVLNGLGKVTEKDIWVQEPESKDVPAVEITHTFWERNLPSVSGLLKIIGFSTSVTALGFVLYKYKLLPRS

[3] = DRUGMATRIX: Phosphodiesterase PDE4 enzyme inhibition (substrate: [3H]cAMP + cAMP); details: u-937; Not Active = under 50% inhibition at 10 µM
[4] = biological target: Protein kinase C alpha type (Homo sapiens, UniProt P17252); type: cell-based; details: sf9;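 further: inhibition of PKCalpha kinase activity measured in an enzyme assay with histone as the phosphorylation substrate; in other assays of this panel Not Active means under 50% inhibition at 10 µM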
[5] = biological target: Epidermal growth factor receptor (Homo sapiens, UniProt P00533); experiment: DRUGMATRIX: Protein Tyrosine Kinase, EGF Receptor enzyme inhibition (substrate: Poly(Glu:Tyr)); type: cell-based, Insect cells; details: Not Active = under 50% inhibition at 10 µM
Chain of Epidermal growth factor receptor (P00533 whole entry): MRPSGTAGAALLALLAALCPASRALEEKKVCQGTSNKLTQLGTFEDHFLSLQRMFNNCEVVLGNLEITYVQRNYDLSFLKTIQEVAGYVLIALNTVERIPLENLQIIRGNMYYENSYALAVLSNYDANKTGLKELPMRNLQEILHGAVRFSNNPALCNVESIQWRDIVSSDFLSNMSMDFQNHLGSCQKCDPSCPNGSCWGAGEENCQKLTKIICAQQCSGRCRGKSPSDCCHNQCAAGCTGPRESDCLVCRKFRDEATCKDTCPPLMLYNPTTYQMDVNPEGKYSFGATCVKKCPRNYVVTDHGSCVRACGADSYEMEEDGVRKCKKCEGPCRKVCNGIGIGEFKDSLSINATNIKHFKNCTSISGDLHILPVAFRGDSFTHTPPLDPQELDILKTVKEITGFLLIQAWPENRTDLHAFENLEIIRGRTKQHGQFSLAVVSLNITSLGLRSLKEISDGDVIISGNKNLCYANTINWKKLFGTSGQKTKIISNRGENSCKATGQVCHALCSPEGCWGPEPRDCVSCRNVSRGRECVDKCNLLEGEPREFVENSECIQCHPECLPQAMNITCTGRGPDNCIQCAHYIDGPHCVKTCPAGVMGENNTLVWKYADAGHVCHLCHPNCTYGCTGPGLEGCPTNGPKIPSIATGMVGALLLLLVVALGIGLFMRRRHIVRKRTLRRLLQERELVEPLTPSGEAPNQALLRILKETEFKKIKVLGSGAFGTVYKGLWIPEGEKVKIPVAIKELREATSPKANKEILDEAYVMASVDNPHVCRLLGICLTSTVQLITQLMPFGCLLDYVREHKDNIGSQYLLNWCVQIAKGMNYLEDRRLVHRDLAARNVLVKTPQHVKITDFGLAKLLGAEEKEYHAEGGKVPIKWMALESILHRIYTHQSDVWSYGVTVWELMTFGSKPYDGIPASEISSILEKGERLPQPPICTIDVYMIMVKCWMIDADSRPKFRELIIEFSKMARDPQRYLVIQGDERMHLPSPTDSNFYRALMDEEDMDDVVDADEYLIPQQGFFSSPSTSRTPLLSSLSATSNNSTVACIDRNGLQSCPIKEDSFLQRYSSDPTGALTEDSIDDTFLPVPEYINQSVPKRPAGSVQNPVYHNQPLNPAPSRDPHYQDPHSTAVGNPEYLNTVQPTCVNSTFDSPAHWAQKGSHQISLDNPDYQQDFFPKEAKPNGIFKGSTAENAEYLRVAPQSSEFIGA

Chain of 5-hydroxytryptamine receptor 6 (P50406 whole entry): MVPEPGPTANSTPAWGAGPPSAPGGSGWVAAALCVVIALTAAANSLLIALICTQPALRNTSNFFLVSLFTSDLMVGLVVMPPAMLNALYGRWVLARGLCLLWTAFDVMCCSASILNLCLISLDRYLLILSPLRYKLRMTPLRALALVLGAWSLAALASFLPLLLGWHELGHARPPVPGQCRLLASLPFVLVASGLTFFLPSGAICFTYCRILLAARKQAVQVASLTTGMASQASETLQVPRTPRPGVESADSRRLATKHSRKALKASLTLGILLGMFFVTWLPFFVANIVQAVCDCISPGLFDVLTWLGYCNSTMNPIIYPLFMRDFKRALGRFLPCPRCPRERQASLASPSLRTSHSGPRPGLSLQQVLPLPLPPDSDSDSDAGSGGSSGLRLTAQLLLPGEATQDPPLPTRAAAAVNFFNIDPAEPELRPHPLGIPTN

Row | Structure (SMILES) | IC50 ([1]; hela) | IC50 (Substance-K receptor; cho) | IC50 [2] | IC50 [3] | Ki [3] | IC50 [4] | IC50 ([5]; insect cells) | IC50 ([1]; read-out: IC50) [nM] | Ki [1] [nM] | IC50 (Substance-K receptor; read-out: IC50) [nM] | Ki (Substance-K receptor; read-out: Ki) [nM] | IC50 ([5]; read-out: IC50) [nM]
1 | COc1cc(N)nc2[nH]c(-c3ccc(F)cc3)c(-c3ccncc3)c12 | Not Active | Not Active | Not Active | Not Active | Not Active | Not Active |  |  |  |  |  | 
2 | CNS(=O)(=O)Cc1ccc2[nH]cc(CCN(C)C)c2c1 | Not Active | Not Active | Not Active | Not Active | Not Active | Not Active | Not Active |  |  |  |  | 
3 | CCCc1nn(C)c2c(=O)[nH]c(-c3cc(S(=O)(=O)N4CCN(C)CC4)ccc3OCC)nc12 | Not Active | Not Active | Not Active | Not Active | Not Active | Not Active | Not Active |  |  |  |  | 
4 | COc1ccc(/C=C/C(=O)Nc2ccccc2C(=O)O)cc1OC | Not Active | Not Active | Not Active | Not Active | Not Active | Not Active | Not Active |  |  |  |  | 
5 | CCOC(N)=O | Not Active | Not Active | Not Active | Not Active | Not Active | Not Active | Not Active |  |  |  |  | 
6 | CC(=O)Nc1nnc(S(N)(=O)=O)s1 [ACETAZOLAMIDE] | Not Active | Not Active | Not Active |  |  | Not Active | Not Active |  |  |  |  | 
7 | O=c1[nH]c2ccccc2n1CCCN1CCC(n2c(=O)[nH]c3cc(Cl)ccc32)CC1 [DOMPERIDONE] | Not Active | Not Active | Not Active |  |  | Not Active | Not Active |  |  |  |  | 
8 | CC1=C(CC(=O)O)c2cc(F)ccc2/C1=C\c1ccc(S(C)(=O)=O)cc1 [EXISULIND] | Not Active | Not Active | Not Active | Not Active | Not Active | Not Active | Not Active |  |  |  |  | 
9 | CC(C)OC(=O)C(C)(C)Oc1ccc(C(=O)c2ccc(Cl)cc2)cc1 [FENOFIBRATE] | Not Active | Not Active | Not Active |  |  | Not Active | Not Active |  |  |  |  | 
10 | OCCN1CCN(CCCN2c3ccccc3Sc3ccc(C(F)(F)F)cc32)CC1 [FLUPHENAZINE] |  |  | Not Active |  |  | Not Active |  | 52 | 24 | 22500 | 7490 | 40100
11 | CN1C2CCCC1CC(NC(=O)c1nn(C)c3ccccc13)C2 (stereo not drawn) [GRANISETRON] | Not Active | Not Active | Not Active |  |  | Not Active | Not Active |  |  |  |  | 
12 | Nc1nc2c(c(=O)[nH]1)N(C=O)C(CNc1ccc(C(=O)N[C@@H](CCC(=O)O)C(=O)O)cc1)CN2 (stereo partly drawn) [LEUCOVORIN] | Not Active | Not Active | Not Active | Not Active | Not Active | Not Active | Not Active |  |  |  |  | 
13 | C[C@@H](O)[C@H]1C(=O)N2C(C(=O)O)=C(S[C@@H]3CN[C@H](C(=O)N(C)C)C3)[C@H](C)[C@H]12 [MEROPENEM] | Not Active | Not Active | Not Active | Not Active | Not Active | Not Active | Not Active |  |  |  |  | 
14 | CC[C@@H](CO)NC(=O)[C@@H]1C=C2c3cccc4c3c(cn4C)C[C@H]2N(C)C1 [METHYSERGIDE] |  | Not Active | Not Active |  |  | Not Active | Not Active | 162 | 75 |  |  | 
15 | CCN(CC)CC#CCOC(=O)C(O)(c1ccccc1)C1CCCCC1 (stereo not drawn) [OXYBUTYNIN] | Not Active | Not Active | Not Active |  |  | Not Active | Not Active |  |  |  |  | 
